Assay results as given in US20260297085A1, “1 H-PYRROLO[2,3-B]PYRIDIN-4-YL]-2-OXOPYRROLIDINE-3-CARBONITRILE DERIVATIVES AS TYROSINE KINASE 2 (TYK2) INHIBITORS FOR THE TREATMENT OF INFLAMMATORY DISEASES” (BIOGEN MA INC., priority 2023, published 2026).
Counter-ions that a name gives are not always drawn.

How the values were obtained:
[1] = target: T1, human JAK2 kinase domain (JH1) (Homo sapiens, UniProt O60674); assay: JH1 biochemical assay for JAK2 (ADP-Glo kinase assay, recombinant JH1 catalytic domain, JAK3-974 peptide, 15 μM ATP)
T1 construct: recombinantly generated catalytic kinase (also known as JH1) domain of human JAK1, JAK2, JAK3 and TYK2
Method in brief: (§1)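 Reactions ran 100 min with 50 μM substrate peptide (JAK3-342 for JAK1 at 4 nM enzyme; JAK3-974 for JAK2 0.2 nM, JAK3 0.3 nM, TYK2 2 nM), and ADP formed was read by ADP-Glo luminescence. Eleven-point 3-fold series from 10 or 1 μM; IC50 fitted by 4-parameter logistic model.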

[2] = target: T2, human TYK2 kinase domain (JH1) (Homo sapiens, UniProt P29597); assay: JH1 biochemical assay for TYK2 (ADP-Glo kinase assay, recombinant JH1 catalytic domain, JAK3-974 peptide, 10 μM ATP)
T2 construct: recombinantly generated catalytic kinase (also known as JH1) domain of human JAK1, JAK2, JAK3 and TYK2
T2 sequence (P29597 897-1176 limits assumed): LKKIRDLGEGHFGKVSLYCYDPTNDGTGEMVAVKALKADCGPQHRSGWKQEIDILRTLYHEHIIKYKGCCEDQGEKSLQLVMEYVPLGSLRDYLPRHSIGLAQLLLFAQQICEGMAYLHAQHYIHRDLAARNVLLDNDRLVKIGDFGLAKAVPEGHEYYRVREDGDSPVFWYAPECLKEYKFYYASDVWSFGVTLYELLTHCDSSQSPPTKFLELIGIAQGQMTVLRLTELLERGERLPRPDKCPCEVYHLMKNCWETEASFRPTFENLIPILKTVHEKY
Method in brief: as §1

[3] = target: JAK2 kinase activity on STAT5 in TF1 cells (Homo sapiens, UniProt O60674); assay: pSTAT5 cell assay (MSD; TF1 cells, 30 ng/mL IL-3 stimulation); format: cell-based; settings: 30 ng/mL IL-3, 15 minutes
Method in brief: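 Serum-starved TF1 cells with native JAK2/STAT5 were pretreated 1 h with compound (10-point four-fold dilutions from 10 μM), then stimulated 15 min with 30 ng/mL IL-3. pSTAT5 in lysates quantified by MSD immunoassay; normalized percent activity fitted to a 4-parameter logistic curve for IC50.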

[4] = target: Tyk2 kinase activity on STAT4 in NK92 cells (Homo sapiens, UniProt P29597); assay: pSTAT4 cell assay (MSD; NK92 cells, 30 ng/mL IL2 stimulation); format: cell-based; settings: 30 ng/mL IL2, 15 minutes
Method in brief: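 Serum-starved NK92 cells, which natively express Tyk2 and STAT4, were pretreated for 1 h with a 10-point 4-fold dilution series from 10 μM. They were then stimulated with 30 ng/mL IL2 for 15 min. Phospho-STAT in lysates was quantified by MSD with anti-STAT4 antibodies, and IC50 was obtained from 4-parameter logistic fits.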

[5] = target: T3, human JAK1 kinase domain (JH1) (Homo sapiens, UniProt P23458); assay: JH1 biochemical assay for JAK1 (ADP-Glo kinase assay, recombinant JH1 catalytic domain, JAK3-342 peptide, 35 μM ATP)
T3 construct: recombinantly generated catalytic kinase (also known as JH1) domain of human JAK1, JAK2, JAK3 and TYK2
Method in brief: as §1

[6] = target: JAK1 kinase activity on STAT3 in TF1 cells (Homo sapiens, UniProt P23458); assay: pSTAT3 cell assay (MSD; TF1 cells, 30 ng/mL IL-6 stimulation); format: cell-based; settings: 30 ng/mL IL-6, 15 minutes
Method in brief: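 Readout is pSTAT3 in lysates, quantified on an MSD plate assay using anti-STAT3 antibodies. Before lysis, TF1 cells had been serum-starved, exposed to compound for 1 hour across ten four-fold dilutions starting at 10 μM, and given IL-6 for 15 minutes.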

[7] = target: T4, human JAK3 kinase domain (JH1) (Homo sapiens, UniProt P52333); assay: JH1 biochemical assay for JAK3 (ADP-Glo kinase assay, recombinant JH1 catalytic domain, JAK3-974 peptide, 4 μM ATP)
T4 construct: recombinantly generated catalytic kinase (also known as JH1) domain of human JAK1, JAK2, JAK3 and TYK2
Method in brief: as §1

Chain of JAK1 kinase activity on STAT3 in TF1 cells (P23458 whole entry): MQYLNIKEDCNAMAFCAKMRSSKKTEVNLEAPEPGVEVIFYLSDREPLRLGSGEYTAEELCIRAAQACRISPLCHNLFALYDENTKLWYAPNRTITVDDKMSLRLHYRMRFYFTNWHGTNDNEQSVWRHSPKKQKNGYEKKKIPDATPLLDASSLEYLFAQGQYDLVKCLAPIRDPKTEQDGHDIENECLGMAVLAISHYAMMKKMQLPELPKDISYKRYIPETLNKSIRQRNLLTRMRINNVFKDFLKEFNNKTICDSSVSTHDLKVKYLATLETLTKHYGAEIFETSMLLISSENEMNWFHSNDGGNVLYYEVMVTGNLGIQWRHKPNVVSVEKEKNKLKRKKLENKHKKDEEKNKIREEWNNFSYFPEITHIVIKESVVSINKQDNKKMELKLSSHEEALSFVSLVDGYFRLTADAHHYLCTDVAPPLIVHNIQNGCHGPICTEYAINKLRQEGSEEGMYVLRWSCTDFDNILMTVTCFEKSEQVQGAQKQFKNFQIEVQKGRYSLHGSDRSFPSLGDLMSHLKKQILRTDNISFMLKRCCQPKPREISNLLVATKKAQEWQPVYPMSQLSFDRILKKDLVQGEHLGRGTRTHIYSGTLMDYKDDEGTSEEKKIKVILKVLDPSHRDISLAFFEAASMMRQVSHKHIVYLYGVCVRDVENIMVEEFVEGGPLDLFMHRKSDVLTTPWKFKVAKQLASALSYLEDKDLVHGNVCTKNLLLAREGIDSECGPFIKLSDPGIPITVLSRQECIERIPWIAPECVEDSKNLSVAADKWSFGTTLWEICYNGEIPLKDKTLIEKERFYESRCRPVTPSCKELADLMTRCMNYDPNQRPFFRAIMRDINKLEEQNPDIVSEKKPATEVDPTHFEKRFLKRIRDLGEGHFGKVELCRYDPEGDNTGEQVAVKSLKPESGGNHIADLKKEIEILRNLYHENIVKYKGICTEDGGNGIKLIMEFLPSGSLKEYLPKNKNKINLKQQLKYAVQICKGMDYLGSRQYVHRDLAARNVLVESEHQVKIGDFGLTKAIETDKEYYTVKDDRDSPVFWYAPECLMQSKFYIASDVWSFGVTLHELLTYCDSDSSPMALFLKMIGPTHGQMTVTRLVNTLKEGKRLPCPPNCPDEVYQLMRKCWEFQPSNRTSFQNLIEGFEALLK
Chain of JAK2 kinase activity on STAT5 in TF1 cells (O60674 whole entry): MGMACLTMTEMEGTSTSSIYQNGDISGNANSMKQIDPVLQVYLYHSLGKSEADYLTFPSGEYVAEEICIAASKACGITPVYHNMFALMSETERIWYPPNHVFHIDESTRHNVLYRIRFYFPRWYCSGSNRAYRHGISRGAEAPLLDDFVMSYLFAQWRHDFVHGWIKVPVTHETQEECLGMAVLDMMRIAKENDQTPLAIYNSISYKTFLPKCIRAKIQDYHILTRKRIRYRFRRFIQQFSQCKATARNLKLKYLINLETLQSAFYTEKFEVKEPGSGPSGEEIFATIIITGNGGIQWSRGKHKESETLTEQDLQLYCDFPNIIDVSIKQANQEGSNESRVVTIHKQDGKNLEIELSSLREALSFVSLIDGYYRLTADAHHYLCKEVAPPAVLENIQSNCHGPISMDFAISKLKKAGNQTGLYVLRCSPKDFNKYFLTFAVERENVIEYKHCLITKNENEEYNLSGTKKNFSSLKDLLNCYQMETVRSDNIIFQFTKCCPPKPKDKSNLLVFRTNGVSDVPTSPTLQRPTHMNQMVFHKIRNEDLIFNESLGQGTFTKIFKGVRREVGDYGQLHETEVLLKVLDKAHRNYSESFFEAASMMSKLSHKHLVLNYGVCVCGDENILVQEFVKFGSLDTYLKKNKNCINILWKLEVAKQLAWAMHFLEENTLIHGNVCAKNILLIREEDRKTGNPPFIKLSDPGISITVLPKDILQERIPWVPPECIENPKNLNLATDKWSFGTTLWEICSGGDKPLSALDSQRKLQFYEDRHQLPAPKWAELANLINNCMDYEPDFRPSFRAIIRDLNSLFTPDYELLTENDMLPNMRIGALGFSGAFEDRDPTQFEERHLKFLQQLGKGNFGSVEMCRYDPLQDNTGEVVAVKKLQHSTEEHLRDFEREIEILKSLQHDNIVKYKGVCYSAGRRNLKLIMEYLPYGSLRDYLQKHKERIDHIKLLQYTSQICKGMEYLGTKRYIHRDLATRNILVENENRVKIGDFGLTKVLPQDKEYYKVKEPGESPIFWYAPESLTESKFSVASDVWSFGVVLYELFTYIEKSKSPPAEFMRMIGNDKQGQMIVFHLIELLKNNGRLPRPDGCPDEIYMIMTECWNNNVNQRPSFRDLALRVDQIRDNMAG
T4 sequence (P52333 822-1111 limits assumed): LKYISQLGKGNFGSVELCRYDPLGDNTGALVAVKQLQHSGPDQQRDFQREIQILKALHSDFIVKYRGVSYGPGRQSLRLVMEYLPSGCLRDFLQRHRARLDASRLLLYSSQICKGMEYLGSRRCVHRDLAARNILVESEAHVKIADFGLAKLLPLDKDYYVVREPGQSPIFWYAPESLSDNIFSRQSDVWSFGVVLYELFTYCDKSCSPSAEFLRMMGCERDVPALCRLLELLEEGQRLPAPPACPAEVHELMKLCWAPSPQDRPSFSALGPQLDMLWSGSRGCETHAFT
T3 sequence (P23458 875-1153 limits assumed): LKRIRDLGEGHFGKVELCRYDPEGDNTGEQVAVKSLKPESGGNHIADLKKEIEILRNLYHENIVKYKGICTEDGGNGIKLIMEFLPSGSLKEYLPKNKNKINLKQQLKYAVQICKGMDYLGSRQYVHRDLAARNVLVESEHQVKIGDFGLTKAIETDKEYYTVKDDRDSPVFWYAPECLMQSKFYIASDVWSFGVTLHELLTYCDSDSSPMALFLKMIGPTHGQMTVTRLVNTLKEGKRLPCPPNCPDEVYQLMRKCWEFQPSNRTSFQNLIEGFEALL
Chain of Tyk2 kinase activity on STAT4 in NK92 cells (P29597 whole entry): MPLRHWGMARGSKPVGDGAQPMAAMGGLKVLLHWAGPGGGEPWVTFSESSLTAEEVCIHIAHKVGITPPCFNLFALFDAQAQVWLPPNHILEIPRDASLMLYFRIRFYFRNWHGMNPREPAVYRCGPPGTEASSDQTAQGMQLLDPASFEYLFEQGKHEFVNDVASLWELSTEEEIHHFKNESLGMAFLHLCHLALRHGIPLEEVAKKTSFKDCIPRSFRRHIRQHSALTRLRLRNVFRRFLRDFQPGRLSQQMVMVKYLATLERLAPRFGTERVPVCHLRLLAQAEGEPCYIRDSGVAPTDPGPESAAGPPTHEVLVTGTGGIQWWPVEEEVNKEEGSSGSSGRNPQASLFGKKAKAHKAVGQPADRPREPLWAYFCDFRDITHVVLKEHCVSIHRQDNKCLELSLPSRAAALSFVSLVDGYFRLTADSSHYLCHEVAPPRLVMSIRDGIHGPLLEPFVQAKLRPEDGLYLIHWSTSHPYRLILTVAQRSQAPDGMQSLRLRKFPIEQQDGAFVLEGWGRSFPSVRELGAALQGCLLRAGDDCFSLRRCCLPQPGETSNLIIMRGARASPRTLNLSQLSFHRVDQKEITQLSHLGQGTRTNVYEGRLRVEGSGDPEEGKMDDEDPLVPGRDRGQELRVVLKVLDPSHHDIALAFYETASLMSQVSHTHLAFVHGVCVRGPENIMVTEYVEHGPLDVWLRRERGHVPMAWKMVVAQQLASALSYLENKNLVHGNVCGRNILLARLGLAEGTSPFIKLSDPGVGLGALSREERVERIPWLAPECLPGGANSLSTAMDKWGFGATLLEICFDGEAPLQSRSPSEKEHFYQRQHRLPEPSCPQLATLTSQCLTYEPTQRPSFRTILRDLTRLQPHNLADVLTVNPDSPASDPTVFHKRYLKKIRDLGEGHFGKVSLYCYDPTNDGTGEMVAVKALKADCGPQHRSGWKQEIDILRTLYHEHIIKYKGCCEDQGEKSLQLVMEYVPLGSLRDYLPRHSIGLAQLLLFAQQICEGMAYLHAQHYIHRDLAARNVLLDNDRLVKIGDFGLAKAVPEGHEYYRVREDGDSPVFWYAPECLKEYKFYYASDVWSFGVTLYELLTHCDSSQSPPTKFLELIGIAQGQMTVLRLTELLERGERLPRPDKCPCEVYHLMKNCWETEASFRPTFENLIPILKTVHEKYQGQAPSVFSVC
T1 sequence (O60674 849-1124 limits assumed): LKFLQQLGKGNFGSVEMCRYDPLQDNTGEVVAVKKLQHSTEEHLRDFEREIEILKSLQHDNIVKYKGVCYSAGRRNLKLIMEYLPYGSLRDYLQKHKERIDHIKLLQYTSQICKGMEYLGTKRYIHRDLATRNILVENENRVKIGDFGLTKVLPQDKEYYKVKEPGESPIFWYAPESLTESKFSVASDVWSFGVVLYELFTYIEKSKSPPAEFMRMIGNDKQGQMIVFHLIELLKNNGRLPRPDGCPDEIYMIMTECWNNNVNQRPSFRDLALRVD

Row | Compound | IC50 ([1]; JAK2 JH1, ADP-Glo) | IC50 ([2]; TYK2 JH1, ADP-Glo) | IC50 [3] | IC50 [4] | IC50 ([5]; JAK1 JH1, ADP-Glo) | IC50 [6] | IC50 ([7]; JAK3 JH1, ADP-Glo) | IC50 ([1]; JH1 kinase domain, ADP-Glo) | IC50 ([2]; JH1 kinase domain, ADP-Glo) | IC50 ([5]; JH1 kinase domain, ADP-Glo) | IC50 ([7]; JH1 kinase domain, ADP-Glo)
1 | C[C@@H]1CN(c2nn(-c3cnn(C(F)F)c3)c3cnccc23)C(=O)[C@]1(C#N)C1CC1 [Example 276, (3R,4S)-3-cyclopropyl-1-(1-(1-(difluoromethyl)-1H-pyrazol-4-yl)-1H-pyrazolo[3,4-c]pyridin-3-yl)-4-methyl-2-oxopyrrolidine-3-carbonitrile] | 1000 to 5000 nM | 5 to 20 nM | > 10000 nM | > 100 nM | 100 to 1000 nM | 5000 to 10000 nM | 100 to 1000 nM | – | – | – | –
2 | C[C@@H]1CN(c2ccnc3cc(-c4cnn(C)c4)oc23)C(=O)[C@]1(C#N)C1CC1 [Example 268, (3R,4S)-3-cyclopropyl-4-methyl-1-(2-(1-methyl-1H-pyrazol-4-yl)furo[3,2-b]pyridin-7-yl)-2-oxopyrrolidine-3-carbonitrile] | 100 to 1000 nM | 5 to 20 nM | > 10000 nM | 50 to 100 nM | 100 to 1000 nM | 1000 to 5000 nM | 100 to 1000 nM | – | – | – | –
3 | C[C@@H]1CN(c2nc(-c3cnn([C@H]4CCOC4)c3)cn3ncc(F)c23)C(=O)[C@]1(C#N)C1CC1 [Example 191, (3R,4S)-3-cyclopropyl-1-(3-fluoro-6-(1-((S)-tetrahydrofuran-3-yl)-1H-pyrazol-4-yl)pyrazolo[1,5-a]pyrazin-4-yl)-4-methyl-2-oxopyrrolidine-3-carbonitrile] | – | – | 1000 to 5000 nM | 50 to 100 nM | – | 1000 to 5000 nM | – | < 100 nM | < 5 nM | < 100 nM | < 100 nM
4 | C[C@@H]1CN(c2ccnn3cc(-c4cn[nH]c4)cc23)C(=O)[C@]1(C#N)C1CC1 [Example 59, (3R,4S)-1-(6-(1H-pyrazol-4-yl)pyrrolo[1,2-b]pyridazin-4-yl)-3-cyclopropyl-4-methyl-2-oxopyrrolidine-3-carbonitrile trifluoroacetate] | – | – | 5000 to 10000 nM | 50 to 100 nM | – | 1000 to 5000 nM | – | 100 to 1000 nM | < 5 nM | < 100 nM | 100 to 1000 nM

Second part, the compound after the results:

Row | IC50 ([1]; JAK2 JH1, ADP-Glo) | IC50 ([2]; TYK2 JH1, ADP-Glo) | IC50 [3] | IC50 [4] | IC50 ([5]; JAK1 JH1, ADP-Glo) | IC50 [6] | IC50 ([7]; JAK3 JH1, ADP-Glo) | IC50 ([1]; JH1 kinase domain, ADP-Glo) | IC50 ([2]; JH1 kinase domain, ADP-Glo) | IC50 ([5]; JH1 kinase domain, ADP-Glo) | IC50 ([7]; JH1 kinase domain, ADP-Glo) | Compound
5 | 100 to 1000 nM | < 5 nM | 1000 to 5000 nM | > 100 nM | < 100 nM | 100 to 1000 nM | < 100 nM | – | – | – | – | C[C@@H]1CN(c2cc(-c3cnn(C(F)F)c3)cc3ncsc23)C(=O)[C@]1(C#N)C1CC1 [Example 349, (3R,4S)-3-cyclopropyl-1-(5-(1-(difluoromethyl)-1H-pyrazol-4-yl)benzo[d]thiazol-7-yl)-4-methyl-2-oxopyrrolidine-3-carbonitrile]
6 | < 100 nM | < 5 nM | 1000 to 5000 nM | > 100 nM | < 100 nM | 5000 to 10000 nM | < 100 nM | – | – | – | – | C[C@@H]1CN(c2nc(-c3cnn([C@H]4C[C@@](F)(C#N)C4)c3)cn3ncc(F)c23)C(=O)[C@]1(C#N)C1CC1 [Example 309, (3R,4S)-1-(6-(1-((1r,3R)-3-cyano-3-fluorocyclobutyl)-1H-pyrazol-4-yl)-3-fluoropyrazolo[1,5-a]pyrazin-4-yl)-3-cyclopropyl-4-methyl-2-oxopyrrolidine-3-carbonitrile]
7 | < 100 nM | < 5 nM | 100 to 1000 nM | 20 to 50 nM | < 100 nM | 100 to 1000 nM | < 100 nM | – | – | – | – | C[C@@H]1CN(c2nc(-c3cnn(-c4ccncc4)c3)cn3nccc23)C(=O)[C@]1(C#N)C1CC1 [Example 295, (3R,4S)-3-cyclopropyl-4-methyl-2-oxo-1-(6-(1-(pyridin-4-yl)-1H-pyrazol-4-yl)pyrazolo[1,5-a]pyrazin-4-yl)pyrrolidine-3-carbonitrile]
8 | < 100 nM | < 5 nM | 100 to 1000 nM | 50 to 100 nM | < 100 nM | 100 to 1000 nM | < 100 nM | – | – | – | – | CO[C@H]1C[C@H](n2cc(-c3cn4ncc(F)c4c(N4C[C@@H](C)[C@@](C#N)(C5CC5)C4=O)n3)cn2)C1 [Example 299, (3R,4S)-3-cyclopropyl-1-(3-fluoro-6-(1-((1r,3R)-3-methoxycyclobutyl)-1H-pyrazol-4-yl)pyrazolo[1,5-a]pyrazin-4-yl)-4-methyl-2-oxopyrrolidine-3-carbonitrile]
